# Measured values taken from patent US10561638B2, “Methods for treating dependence” (Biotie Therapies, Inc., priority 2007, dated 2020).
# Key:
# [1] = test system: rats; test: Chronic (10 day) dosing behavioral tests in rats; conditions: rat, in vivo
# Procedure: The effects of chronic dosing of nepicastat in rats were examined. Between three and thirteen days prior to the first dosing day the rats were placed inside the startle apparatus and after a five minute acclimation period they were presented with a 118 dB noise burst on average once a minute (a variable inter-trial interval ranging between 30 and 90 seconds will be used) for 20 minutes. The startle responses were measured and a mean for the last twenty startle response was calculated for each rat.
# The following behavioral tests were administered during and after chronic dosing; body core temperature, motor activity, acoustic startle reactivity, and pre-pulse inhibition of acoustic startle.
# The animals were tested in an enclosed room with a white noise generator running Motor activity tests were conducted immediately after the body core temperature reading taken on dosing day ten (about 3 hours and 35 minutes after the morning daily dose of nepicastat, and SKF-102698, and 20 minutes prior to the daily administration of clonidine and d-amphetamine on dosing day ten). Motor activity tests were run for one hour. A diagnostic program was run on each of the motor activity chambers prior to each test session to assure that the photo beams and light sensors were operating properly. […] D-amphetamine was used as the positive control for this assay.
# Rat body core temperatures were obtained by inserting the rectal probe 2 cm into the colon of each rat. Each rat's body core temperature was measured three times and the average of the three reading was calculated. Body core temperature readings were obtained immediately prior to the ten day chronic dosing schedule (to obtain a baseline), and three and half hour after the morning daily dose of nepicastat, and SKF-102698, and 15 minutes prior to the daily administration of clonidine and d-amphetamine, on dosing days one, five and ten. […] Both clonidine (an alpha2 agonist), and d-amphetamine (a dopamine releaser) were used as the positive controls for this assay.
# Acoustic startle reactivity (a series of muscle contractions elicited by an intense burst of noise with a rapid onset), and pre-pulse inhibition (sensorimotor gating measured by analyzing any decrease in startle reactivity which occurs when a startling stimulus is immediately preceded by a non startling stimulus) were both measured in eight SR-Lab (San Diego Instruments, San Diego, Calif.) test stations. The rats were placed individually in a Plexiglas cylinder (10 cm diameter) which was housed in a ventilated sound-attenuating enclosure. Acoustic noise bursts (a broad band noise with a rise time and fall time of 1 msec) were presented via a speaker mounted 30 cm above the animal. Also, these speakers produced a 68 dB level of background noise throughout all test sessions. A piezoelectric accelerometer attached below the plexiglass cylinder transduced the subject's movement into a voltage which was then rectified and digitized (on a scale from 0 to 4095) by a PC computer equipped with SR-Lab software and interface assembly. A decibel meter was used to calibrate the speakers in each of the eight test station to ±1% of the mean. Additionally, a SR-Lab calibrating instrument was used to calibrate each of the eight startle detection apparatuses to ±2% of the mean. Startle reactivity and pre-pulse inhibition tests were run concurrently immediately alter the motor activity test (about 4 hours and 40 minutes after the morning daily injection of nepicastat, and SKF-102698, and 10 minutes after a supplemental administration of clonidine and d-amphetamine on dosing day ten).
# [2] = test system: Sprague Dawley rats; test: Locomotor activity and acoustic startle reactivity in rats, acute; format: in vivo; conditions: nepicastat 3-100 mg/kg, SKF-102698 100 mg/kg, clonidine 40 μg/kg
# Source text: Rats were housed under a normal light/dark cycle with lights on between 0900 Hrs. and 2100 Hrs. Animals were housed in pairs in standard metal wire cages, and food and water were allowed ad libitum. The locomotor activity boxes consisted of a Plexiglas box measuring 18''×18'' by 12'' high. Surrounding the Plexiglas® boxes were Omnitech Digiscan Monitors (model # RXXCM 16) which consisted of a one inch ban of photobeams and photosensors numbering 32 per box. The number of photobeam breaks were analyzed by an Omnitech Digiscan Analyzer (model # DCM-8). […] A piezoelectric accelerometer transforms the subject's movement into an arbitrary voltage on a scale of 0 to 4095. […] The average startle was calculated for each rat by taking the mean of startle number 11 through 45 (the first ten startles will be disregarded). Sixty-four of these rats were then placed in one of eight treatment groups such that each group had similar mean startle values. The eight treatment groups were as follows: […] […] The rats motor activity was monitored for four hours. […] To evaluate motor activity, horizontal activity (number of photobeams broken), number of movements, and rest time were measured. Each parameter was analyzed separately. […] The startle responses were analyzed using analysis of covariance. […] Therefore, the startle responses were analyzed by time. […]
# [3] = cited from earlier work
# [4] = test system: brain dopamine/norepinephrine ratio; test: Dopamine/norepinephrine ratios in the brain of rodents; conditions: in vivo
# Procedure: Dopamine/norepinephrine ratios in the brain of rodents treated with nepicastat were determined. Dopamine/norepinephrine ratios increased in the brains of rodents treated with nepicastat or disulfuram.
# [5] = test system: normotensive Wistar rats; test: 7 day radio-telemetry study in normotensive Wistar rats; conditions: hydralazine 10 mg/kg
# Procedure: Male Crl:COBS(WI)BR rats of 15 weeks old were used.
# Both nepicastat and hydralazine were prepared in water with traces of Tween 80. All doses were given orally to the rat in 10 ml/kg and were expressed as free base equivalents.
# All values were expressed as means±SEM. Statistical significance was defined as a p level of less than 0.05.
# Body weights were recorded daily.
# [6] = test system: spontaneous hypertensive rats; test: SCH-23390 pretreatment study in restrained SHRs; format: in vivo; conditions: SCH-23390 iv, post-iv period
# Source text: Male, spontaneous hypertensive rats (280-345 g; Charles River Labs, Kingston, N.Y.) were fasted overnight then anesthetized with ether. A femoral artery and femoral vein were cannulated with PE50 tubing for recording of blood pressure and administration of compounds, respectively. Animals were then placed in MAYO restrainers and their feet loosely taped to the restrainer. Heparinized saline (50 units sodium heparin/ml) was used to maintain patency of each cannula throughout the experiment. The following parameters were continuously recorded using Modular Instruments MI^2 BioReport™ software installed on an IBM personal computer: mean arterial pressure (MAP), heart rate (HR), and the change from baseline for each parameter at specified time points in the experiment.
# All compounds were dissolved on the day of use. Nepicastat was dissolved in deionized water (vehicle) to a free base concentration of 1 mg/ml. Oral dosing volume for nepicastat or vehicle was 10 ml/kg. SCH-23390 was dissolved in saline (vehicle) to a free base concentration of 0.2 mg/ml. […] or saline were administered intravenously as a bolus in a volume of 1.0 ml/kg followed by 0.2 ml flush of isotonic saline.
# Following surgical preparation, each animal was allowed a minimum one hour recovery period. Animals were randomly assigned to four treatment groups: vehicle (iv)/vehicle (po); vehicle (iv)/nepicastat (po); SCH-23390 (iv)/vehicle (po); or SCH-23390 (iv)/nepicastat (po). Once animals were stabilized (minimum one hour), baseline blood pressure and heart rate was determined by taking an average of each parameter over a 15 min period of time. Once baseline blood pressure and heart rate were established, animals were dosed intravenously with either SCH-23390 (200 μg/kg) or vehicle (saline, 1 ml/kg). Fifteen minutes later, animals were orally dosed with either nepicastat (10 mg/kg) or vehicle (deionized water, 10 ml/kg).
# Recorded parameters were measured 15 min prior to intravenous dosing to establish baseline blood pressure and heart rate. Recorded parameters were then measured at 5, 10, and 15 min following intravenous administration of SCH-23390 or vehicle. Following oral administration of nepicastat or vehicle, recorded parameters were measured at 15, 30, 60, 90, 120, 150, 180, 210, and 240 min.
# At the end of the experiment, each animal was anesthetized with halothane and euthanized via decapitation. The cortex, left ventricle (apex), and mesenteric artery were dissected out, weighed, and fixed in 0.4 M perchloric acid. Tissues were then frozen in liquid nitrogen and stored at −70° C. Biochemical analysis are performed on these tissues at a later date to determine catecholamine levels including dopamine and norepinephrine levels. Blood pressure and heart rate were analyzed separately. The change from baseline for blood pressure and heart rate were analyzed by an analysis of variance (ANOVA) with effects for treatment, time, and their interaction. This analysis was performed both for the post-iv time period and for the post-oral time period. Further analyses were performed at each time by an ANOVA with a main effect for […]. Pairwise comparisons were performed following each ANOVA by Fisher's LSD strategy with a Bonferroni correction when the overall treatment effect was not significant.
# An additional analysis was performed to compare the baseline means of each treatment group by an ANOVA with a main effect for treatment and subsequent pairwise comparisons. […]
# [7] = in vivo; cited from earlier work
# [8] = test system: CD-1 (ICR) mice; test: Locomotor activity in mice, intraperitoneal; format: in vivo; conditions: i.p.; nepicastat 3-100, SKF-102698 30 and 100, cocaine 30 mg/kg
# Source text: Adult male CD-1 (ICR) mice (30-40 g on study day) were housed in groups of eight under a normal light/dark cycle with lights on between 0900 hr and 2100 hr. Food and water were allowed ad libitum. All animals were naive to drug treatment and behavioral testing. Each animal was only used once.
# Locomotor activity was monitored in an automated 14 station activity monitoring system (San Diego Instrument Co.). Each station consisted of a clear perspex cage (25 cm×45 cm×20 cm; w×1×h) placed within a metal frame containing 3 photoemmitors and 3 photodetectors spaced equally along the length of the wall. The bottom of each cage was lightly covered in clean cedar bedding.
# The mice were placed in the testing room at least 1 hr prior to testing. The mice were placed individually into one of the activity cages and allowed to explore for 30 min. […] Following a 60 minute pre-treatment period, motor activity was monitored for 180 minutes. Activity counts and ambulations (defined as a break of 2 consecutive photobeams) for each animal were recorded every 30 minutes.
# A repeated measures two-way analysis of variance (ANOVA) was performed using the overall ranked data (nonparametric technique) to test for the overall effects of treatment, time interval and treatment by time interval interaction. […]
smiles,measurement,setting,value
Clc1cccc(Cl)c1N=C1NCCN1 [clonidine],body core temperature,[1],significantly increasing body core temperature on day one
same,pre-pulse inhibition,[1],just significantly higher percent prepulse inhibition
same,"locomotor activity (horizontal activity, movements, rest time) vs vehicle",[2],significantly more horizontal activities at 2 and 2.5 hours
same,maximum and average acoustic startle response vs vehicle,[2],statistically significantly lower maximum and average startle responses
CCN(CC)C(=S)SSC(=S)N(CC)CC [disulfuram],cocaine use vs placebo,[3]; disulfuram 250 mg per day,reduced cocaine use compared to placebo
same,elevations in plasma cocaine levels,"[3]; intranasal cocaine during disulfuram treatment, one controlled study",Six-fold elevations
same,dopamine/norepinephrine ratios in the brain,[4],increased
NNc1nncc2ccccc12 [hydralazine],heart rate,[5],varying degrees of tachycardia
same,time in which the hypotensive effect subsided,[5],10 h
same,maximal decrease in MBP,[5]; within 1 hr after dosing on day 1,−24 mmHg
"CN1CCc2cc(Cl)c(O)cc2[C@@H](c2ccccc2)C1 [SCH-23390, reference compound]",decrease in mean arterial pressure,[6],5±1 mmHg
"COC(=O)[C@H]1[C@@H](OC(=O)c2ccccc2)C[C@@H]2CC[C@H]1N2C.Cl [cocaine, cocaine hydrochloride]",elimination half-life,[7],about 90 min
same,total activity counts and ambulations vs vehicle,[8],significantly greater total activity counts
